In assay [1] the test system is adalimumab-specific IgG response. As to the kind of experiment: ADA against adalimumab in hIgG1 Tg mice, ELISA (Example 1, 28 days). As to conditions: 40 mg/kg/day via food admix from one day before first immunization until day 28, vs vehicle. The class given is in vivo, C57BL/6-Tg (hIgG1,k,l) mice. The source says: For immunogenicity assessment, we used the previously described human IgG1 immune-tolerant mouse model (Bessa, Boeckle et al. Pharm Res 2015, 32(7): 2344-2359). Since this human IgG transgenic mouse is tolerant to a broad range of human IgG1 antibodies (Abs), ADA responses elicited in this system are taken to reflect intrinsic immunogenic attributes of the eliciting Ab compounds also expected to cause ADA in humans.
15-week-old mice C57BL/6 wild type and C57BL/6-Tg (hIgG1,k,l) were purchased from Taconic (Denmark) and housed at the animal facilities under a 12 hour (h) light 12 h dark cycle with cycles of air ventilation and free access to water and food. 7×10 μg of CEA-112v or 7×10 μg of Humira (Adalimumab, Abbvie Germany GmbH) were injected respectively at day 0, 4, 7, 11, 14, 18 and 21 subcutaneously in the right flank or the left flank alternatively. The dosage of the cathepsin S inhibitor consumption was 40 mg/kg/day. […]
Nunc Maxisorp flat-bottom 96 well ELISA plates were coated with 100 μl per well of Humira or CEA-PGLALA (3.42 mg/ml, ID 8037) respectively at 5 μg/mL in NaHCO3100 mM buffer overnight at +4° C. […] 100 μl of substrate P-nitrophenyl phosphate ready to use (Life Technologies Cat no 002212) were added per well and after 10 min incubation at room temperature, the OD at 405 nm was read as an end-point measurement with a Versamax ELISA reader.

The subject of assay [2] is high affinity NP-specific IgG response. As to the kind of experiment: T-cell dependent NP-specific IgG response after NP-OVAL immunization, ELISA (Example 2). As to conditions: 40 mg/kg/day via food admix from two days before NP-OVAL immunization until day 35, vs vehicle. It is filed as in vivo, mice. How it is done: 6 to 8-weeks-old female mice C57BL/6-Tg (hIgG1,k,l) were purchased from Charles River Laboratories (Germany) and housed at the animal facilities in room with air-conditioned under a 12 hours light/dark cycle in macrolon boxes with enriched environment and free access to water and food. The mice were injected at day −2 subcutaneously with 20 μg/mouse of NP-OVAL (4-Hydroxy-3-nitrophenylacetyl hapten conjugated to ovalbumin, Biosearch Technologies, USA, Batch No 060368) with adjuvant (Alhydrogel, InvivoGen #vac-alu-250) at the both flanks or without adjuvant at day 28. The dosage of (2S,4R)-4-[4-(1-methyl-1H-pyrazol-4-yl)-2-trifluoromethyl-benzenesulfonyl]-1-(1-trifluoromethyl-cyclopropanecarbonyl)-pyrrolidine-2-carboxylic acid (1-cyano-cyclopropyl)-amide consumption was 0 (vehicle), 1, 10, 40 mg/kg/day. […]
Nunc Maxisorp flat-bottom 96 well ELISA plates were coated with 100 μl per well of NP(4)-BSA (Biosearch Technologies N-5050L; 1 mg/mL) at 1 μg/mL in NaHCO3100 mM buffer and incubated overnight at +4° C. […] 100 μl of substrate P-nitrophenyl phosphate ready to use (Life Technologies, Cat no 002212) were added per well and after 10 min incubation at room temperature, the OD at 405 nm was read as an end-point measurement with a Versamax ELISA reader.

“Also recorded” adds a separate entry of the source.

With `Cn1cc(-c2ccc(S(=O)(=O)[C@@H]3C[C@@H](C(=O)NC4(C#N)CC4)N(C(=O)C4(C(F)(F)F)CC4)C3)c(C(F)(F)F)c2)cn1` [cathepsin S inhibitor, (2S,4R)-4-[4-(1-methyl-1H-pyrazol-4-yl)-2-trifluoromethyl-benzenesulfonyl]-1-(1-trifluoromethyl-cyclopropanecarbonyl)-pyrrolidine-2-carboxylic acid (1-cyano-cyclopropyl)-amide], the “ADA to adalimumab (adalimumab-specific IgG)” value in assay [1] is “reduces ADA to adalimumab; also recorded: reduced ADA levels compared to vehicle treated animals”. The figures for the “NP-specific IgG levels (T-cell dependent IgG response against NP)” value in assay [2] and in assay [2] (listed as cathepsin S antagonist) were “significantly reduces NP-specific IgG levels” and “effectively abrogating the T-cell dependent IgG response against NP”, respectively.

For the origin of these results see patent US12419862B2, “Use of a cathepsin s inhibitor against the formation of anti-drug antibodies” (Hoffmann-La Roche Inc., priority 2018, dated 2025).
